Results reported in patent US20060205671A1 (priority 2003, published 2006).
Like-named read-outs stand apart in the source and are kept apart here.

Legend:
[1] = test system: models of LAD occlusion followed by reperfusion; conditions: at onset of reperfusion, continued 2 hours post-reperfusion; cited from earlier work
[2] = test system: rabbit model of coronary occlusion-reperfusion; conditions: cited from earlier work; for Effect of antagonist on the effects of PolyA (infarct size): given with PolyA, KW-3902 1 mg/kg i.v.
[3] = test system: canine model of LAD occlusion with reperfusion; conditions: cited from earlier work
neutrophils = conditions: cited from earlier work; for Superoxide generation by neutrophils: neutrophils activated by fMLP, A23187, concanavalin A (adenosine)
[4] = test system: reperfusion injury in the canine preparation; conditions: 24 hours after start of reflow, cited from earlier work
[5] = test system: canine model of severe coronary occlusion; conditions: 10 μM in blood perfusate, first 30 min of reperfusion; after two hours of reperfusion; vs vehicle; cited from earlier work
platelets = conditions: exogenous adenosine; cited from earlier work
[6] = test system: ischemically injured hearts (30 minutes of normothermic global ischemia); conditions: blood cardioplegia supplemented with 400 μM adenosine vs unsupplemented; cited from earlier work
[7] = test system: closed-chest porcine model of regional ischemia and reperfusion; test: Non-surgical ischemia-reperfusion injury in a closed-chest porcine model (75 min LAD occlusion, reperfusion); type: in vivo
Experimental: The use of combined adenosine and aprotinin treatment in the cath-lab setting was performed in a closed-chest porcine model of regional ischemia and reperfusion. Farm-bred pigs were initially anesthetized with ketamine, xylazine, acepromazine, diazepam and atropine, followed by maintenance anesthesia with inhaled isoflurane. Through a small femoral artery cut-down, a pigtail catheter was fluoroscopically guided into the left ventricle for injection of non-radioactive microspheres to measure regional myocardial blood flow. A similar cut-down was performed on the contralateral femoral artery, through which was placed a sheath to introduce a 7-Fr guide catheter and angioplasty-type balloon catheters. The 7-Fr guide catheter was inserted into this sheath and fluoroscopically guided to the left main coronary artery. The left main coronary ostium was engaged by the catheter and a guide wire. An angioplasty-type balloon catheter was guided into the LAD just distal to the first diagonal branch. […]
After all instrumentation was complete, the animal was allowed to stabilize for 10 minutes. Baseline hemodynamics (arterial pressure, heart rate) and myocardial blood flow (microspheres) were measured. The microspheres were injected via the pigtail catheter to quantify myocardial blood flow during steady state. […]

[8] = test system: rat model of coronary artery occlusion and 24 hours of reperfusion; conditions: cited from earlier work
isolated rat hearts = conditions: 105 KIU/L aprotinin, pretreatment and adjunct to crystalloid cardioplegia; cited from earlier work
isolated canine hearts = conditions: cardioplegia containing 150 KIU aprotinin, cited from earlier work
[9] = test system: canine model of 15 minutes coronary artery occlusion; conditions: 30,000 KIU/kg bolus plus 7,000 KIU/kg/hr i.v. prior to occlusion; vs saline control; cited from earlier work
[10] = test system: permanent (24 hours) coronary artery occlusion; conditions: 100,000 KIU i.v. 30 minutes after occlusion; cited from earlier work
rat myocardium slices = conditions: 200 KIU aprotinin, cited from earlier work
[11] = infusion for first hour of reperfusion
[12] = 5,000 KIU/kg before onset of reperfusion, vs vehicle
[13] = 20,000 KIU/kg before onset of reperfusion

In the case of “1S-[1a,2b,3b,4a(S*)]]-4-[7-[[2-(3-chloro-2-thienyl)-1-methylpropyl]amino]-3H-imidazo[4,5-b]pyridyl-3-yl]cyclopentane carboxamide [AMP-579]”, the Infarct size [1] is listed as “reduced”.
For `Cn1c(=O)c2[nH]c(-c3ccc(S(=O)(=O)O)cc3)nc2n(C)c1=O` [8-SPT, 8-p-sulfophenyl theophylline], the “Effect of antagonist on the effects of PolyA (infarct size)” value [2] is listed as “reversed”.
For `CCNC(=O)[C@H]1O[C@@H](n2cnc3c(N)nc(NCCc4ccc(CCC(=O)O)cc4)nc32)[C@H](O)[C@@H]1O` [CGS-21680, 2-[p-(2-carbonyl-ethyl)-phenylethylamino]-5′-N-ethylcarboxamidoadenosine], the Infarct size ([3]; 60 min occlusion, intracoronary infusion for first hour of reperfusion, saline vehicle 29.8±2.3%) is listed as 15.4±2.9 % of the area at risk, the “Neutrophil accumulation in the area at risk” value [3, 11] is listed as “significantly reduced” and the Wall motion [3, 11] is listed as “no improvement”. The “Superoxide generation by neutrophils” value (neutrophils) was “attenuated”.
In the case of `CCCn1c(=O)c2[nH]c(C34CC5CC(CC3C5)C4)nc2n(CCC)c1=O` [KW-3902, 8-(3-noradamantyl)-1,3-dipropylxanthine], the “Effect of antagonist on the effects of PolyA (infarct size)” value [2] is given as “not altered”.
In the case of `Nc1ncnc2c1ncn2[C@@H]1O[C@H](CO)[C@@H](O)[C@H]1O` [adenosine], the Regional contractile function ([4]; intracoronary 3.75 mg/min at onset of reperfusion) is listed as “improved”, the “Reduction of infarct size” value ([4]; intracoronary into LAD 3.75 mg/min at onset of reperfusion) is listed as 75% and the “Infarct size as percent of AAR (An/ARR)” value [5] is listed as “significantly lower”. For the same compound, the “Infarct size as percent of LV (An/LV)” value [5] was “significantly lower”, the “Superoxide generation by neutrophils” value (neutrophils) was “inhibited” and the “Concentrations inhibiting platelet aggregation” value (platelets) was 2 to 40 µM. For the same compound, the Post-ischemic systolic dysfunction [6] was “reversed”, the Infarct size ([7]; intracoronary adenosine approx 10-20 μM LAD blood concentration for about 30 min at reperfusion, group of three animals, delivery questionable (no vasodilatory effect at 15 min)) was 40.4±3.6% and the Infarct size ([7]; intracoronary adenosine approx 10-20 μM for about 30 min at reperfusion, the one experiment with delivery confirmed by vasodilation at 15 min reperfusion) was 10%.
In the case of aprotinin, the “Infarct size estimated from myocardial creatine kinase loss” value [8, 12] is given as “significantly reduced”, the “Neutrophil accumulation (myocardial myeloperoxidase)” value [8, 12] is given as “significantly reduced” and the “Appearance of apoptosis in the area at risk myocardium” value ([8]; 5,000 or 20,000 KIU/kg before onset of reperfusion) is given as “attenuated”. The “Infarct size estimated from myocardial creatine kinase loss” value [8, 13] was “further significantly reduced”, the “Neutrophil accumulation (myocardial myeloperoxidase)” value [8, 13] was “significantly reduced” and the Myocardial protection (isolated rat hearts) was “significant protection”. The “Lysosomal enzyme N-acetyl-β-D-glucosaminidase in coronary sinus blood during reperfusion” value (isolated canine hearts) was “significantly lower”, the “Recovery of systolic function (end-systolic pressure-volume relationship)” value (isolated canine hearts) was “significantly less recovery” and the “Post-ischemic non-specific creatine kinase (CK) activity or CK-MB isoenzyme activity” value (isolated canine hearts; vs control group) was “no difference”. The “Recovery of post-ischemic ATP after reperfusion” value (isolated canine hearts; vs control group) was “significantly greater”, the “Recovery of systolic function in the area at risk (systolic shortening)” value [9] was “significantly greater recovery” and the “Histologically apparent infarct size” value [10] was “decreased”. For the same compound, the “ATP content and protein synthesis of myocardium slices” value (rat myocardium slices; 4° C., up to 6 hours of storage) was “attenuated the decline” and the “TNFα generation and uptake by myocardial tissue slices” value (rat myocardium slices) was “suppressed”.
In the case of polyadenylic acid, the “PMNs superoxide generation and adherence to coronary endothelium” value (neutrophils) is given as “significantly inhibited” and the “Reduction of infarct size” value ([2]; nearly sub-vasodilator dose at reperfusion) is given as 50%.
